Blank lines part the entries; values can stand above or below the compound they belong to. Bridge positions count the residues as written; N and C are the ends. Square brackets hold non-standard residues; d marks the D form. Peptide text beside a SMILES is read from it. * marks the point of attachment. FITC = O=C1OC2(c3ccc(O)cc3Oc3cc(O)ccc32)c2ccc(NC(=S)*)cc21; S5 = C=CCCC[C@](C)(N)C(=O)O; AEEA = NCCOCCOCC(=O)O
Experiments:
[1] = On-resin ring-closing alkyne metathesis (RCAM), alpha-methyl-alpha-alkynyl residues at i,i+4, Mo alkylidyne complex 5 (2 mg/mL, 2 x 0.5 mL), Ar bubbling to remove 2-butyne; bicyclic entries (24-29) additionally closed by RCM (Grubbs I); settings: the molecule shown is the open-chain precursor, toluene, 40.0 °C, 3.0 h
Rab8a6-176(GppNHp) = target: T1, Rab8a6-176(GppNHp) (Homo sapiens, UniProt P61006); assay: Fluorescence polarization (FP) binding assay of fluorescein-labelled peptides; settings: for Rel. Kd (Kd [Peptide]/Kd [StRIP3]) / Kd: FP, fluorescein-PEG labelled peptide 66 nM, 4 h room temperature, 25 mM HEPES pH 7.5; for Rel. Kd (Kd [Peptide]/Kd [StRIP3]): Kd values are single point measurements (n = 1); for Kd: average of triplicate measurements, errors 1σ
T1 construct: Expression and purification of Rab8a6-176 was performed analog to full-length Rab8a; made in house
T1 sequence (P61006 6-176): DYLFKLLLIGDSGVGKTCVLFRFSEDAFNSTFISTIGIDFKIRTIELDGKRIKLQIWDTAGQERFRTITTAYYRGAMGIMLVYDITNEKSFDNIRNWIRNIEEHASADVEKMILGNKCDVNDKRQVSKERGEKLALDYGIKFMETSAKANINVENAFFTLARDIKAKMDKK
Description: Rab8a6–176(GppNHp) was serially diluted in a buffer containing 25 mM HEPES (pH 7.5), 150 mM NaCl, 1 mM MgCl2, 1 mM TCEP, 0.01% Tween 20 and 1 μM GppNHp, treated with 66 nM fluorescein-labelled peptides and incubated for 4 h at room temperature. Fluorescence polarization values (λex=470 nm, λem=525 nm) were determined at room temperature. Initial studies for alkyne macrocyclized peptides were performed as single measurements. Final affinity measurements of a subset of peptides were performed in triplicates. After correction for changes in fluorescence intensity upon binding, the fluorescence anisotoropy data were converted into fraction bound of the FITC-labelled peptide and fitted to a one-site binding model derived from the law of mass action using Kd as the only fitting parameter (for details, see Supplementary Methods)[63]. Nonlinear regression was performed in Prism 5.0 (Graphpad)[64]. […]
using a PD-10 desalting column Sephadex G-25 DNA Grade (GE Healthcare) with elution buffer consisting of 20 mM HEPES (pH 7.5), 50 mM NaCl, 1 mM TCEP. After removal of Mg2+ the protein was diluted to 80 - 100 µM before addition of ZnCl2 (500 µM) and (NH4)2SO4 (200 mM). After addition of alkaline phosphatase (5 U mg-1 Rab protein) the mixture was incubated for 16 h at 4°C. For nucleotide exchange, the mixture contained a 5-fold excess of GppNHp during alkaline phosphatase incubation. Afterwards, the mixture was desalted using a PD-10 desalting column Sephadex G-25 DNA Grade (GE Healthcare) with elution buffer consisting of 25 mM HEPES (pH 7.5) 150 mM NaCl, 1 mM TCEP, 1 mM MgCl2 and 1 µM GppNHp.
Fluorescence polarization assay for the determination of dissociation […]
Rab8a6-176 was serially diluted in a buffer containing 25 mM HEPES (pH 7.5), 150 mM NaCl, 1 mM MgCl2, 1 mM TCEP, 0.01% tween 20 and 1 µM GppNHp (assay buffer), treated with 66 nM fluorescein-labeled peptides and incubated for 4 h at room temperature. Binding assays were performed in 384-well, small volume, black flat-bottom, non-binding plates (Greiner). Fluorescence polarization values (λex = 470 nm, λem = 525 nm) were determined using a Safire II plate reader (Tecan) at room temperature. Initial studies for alkyne macrocyclized peptides were performed as single measurements. Final affinity measurements of a subset of peptides were performed in triplicates. After correction for changes in fluorescence intensity upon binding, the fluorescence anisotoropy data were converted into fraction bound (Supplementary equation 1) of the FITC- labeled peptide and fitted to a one-site binding model derived from the law of mass action using Kd as the only fitting parameter (Supplementary equation 2).4 In case of incomplete binding due to the limited solubility of Rab proteins, anisotropy top-values were extrapolated and constrained as indicated below. Non-linear regression was performed in Prism 5.0 […]
(Supplementary equation 1)
A: observed anisotropy; Afree: anisotropy of free fluorophore; Abound: anisotoropy of bound fluorophore; Q: change in fluorescence intensity between free and bound state […]
(Supplementary equation 2)
Kd: dissociation constant; LT: total concentration of labeled peptide; cRab: protein concentration Microscale Thermophoresis (MST)

SMILES: CC#CCCCC[C@](C)(NC(=O)[C@H](Cc1ccccc1)NC(=O)[C@H](CCC(=O)NC(c1ccccc1)(c1ccccc1)c1ccccc1)NC(=O)[C@H](CCC(=O)OC(C)(C)C)NC(=O)[C@](C)(CCCCC#CC)NC(=O)[C@H](CCC(=O)OC(C)(C)C)NC(=O)[C@H](CC(=O)OC(C)(C)C)NC(=O)[C@H](CC(=O)OC(C)(C)C)NC(=O)OCC1c2ccccc2-c2ccccc21)C(=O)N[C@@H](Cc1ccc(OC(C)(C)C)cc1)C(=O)N[C@@H](Cc1cn(C(c2ccccc2)(c2ccccc2)c2ccccc2)cn1)C(=O)N[C@@H](CC(C)C)C(=O)N[C@@H](CC(C)C)C(=O)N[C@@H](COC(C)(C)C)C(=O)N[C@@H](Cc1ccccc1)C(=O)N[C@@H](CC(=O)NC(c1ccccc1)(c1ccccc1)c1ccccc1)C(=O)N[C@@H](C)C(=O)N[C@H](C(N)=O)C(C)C
ring closure, overall yield ([1]; 23-membered ring): 16%

Increase in binding affinity compared with StRIP3 (Rab8a6-176(GppNHp); FP Kd, Rab8a6-176(GppNHp)): 2 fold | Rel. Kd (Kd [Peptide]/Kd [StRIP3]) (Rab8a6-176(GppNHp)): 0.40 | Kd (Rab8a6-176(GppNHp)): 10.7 ± 0.5 µM
SMILES: CC(C)C[C@H](NC(=O)[C@H](CC(C)C)NC(=O)[C@H](Cc1c[nH]cn1)NC(=O)[C@H](Cc1ccc(O)cc1)NC(=O)[C@]1(C)CCCCC(Br)=C(Br)CCCC[C@](C)(NC(=O)[C@H](CCC(=O)O)NC(=O)[C@H](CC(=O)O)NC(=O)[C@H](CC(=O)O)NC(=O)COCCOCCNC(=S)Nc2ccc3c(c2)C(=O)OC32c3ccc(O)cc3Oc3cc(O)ccc32)C(=O)N[C@@H](CCC(=O)O)C(=O)N[C@@H](CCC(N)=O)C(=O)N[C@@H](Cc2ccccc2)C(=O)N1)C(=O)N[C@@H](CO)C(=O)N[C@@H](Cc1ccccc1)C(=O)N[C@@H](CC(N)=O)C(=O)N[C@@H](C)C(=O)N[C@H](C(N)=O)C(C)C [peptide 21]

SMILES: CC#CCCCC[C@](C)(NC(=O)[C@H](CCC(=O)OC(C)(C)C)NC(=O)[C@H](CC(=O)OC(C)(C)C)NC(=O)[C@H](CC(=O)OC(C)(C)C)NC(=O)OCC1c2ccccc2-c2ccccc21)C(=O)N[C@@H](CCC(=O)OC(C)(C)C)C(=O)N[C@@H](CCC(=O)NC(c1ccccc1)(c1ccccc1)c1ccccc1)C(=O)N[C@@H](Cc1ccccc1)C(=O)N[C@@](C)(CCCC#CC)C(=O)N[C@@H](Cc1ccc(OC(C)(C)C)cc1)C(=O)N[C@@H](Cc1cn(C(c2ccccc2)(c2ccccc2)c2ccccc2)cn1)C(=O)N[C@@H](CC(C)C)C(=O)N[C@@H](CC(C)C)C(=O)N[C@@H](COC(C)(C)C)C(=O)N[C@@H](Cc1ccccc1)C(=O)N[C@@H](CC(=O)NC(c1ccccc1)(c1ccccc1)c1ccccc1)C(=O)N[C@@H](C)C(=O)N[C@H](C(N)=O)C(C)C
ring closure, overall yield ([1]; 22-membered ring): 23%

Rel. Kd (Kd [Peptide]/Kd [StRIP3]) (Rab8a6-176(GppNHp)): 0.42
SMILES: CC(C)C[C@H](NC(=O)[C@H](Cc1c[nH]cn1)NC(=O)[C@H](Cc1ccc(O)cc1)NC(=O)[C@]1(C)CCCCC#CCCC[C@](C)(NC(=O)[C@H](CCC(=O)O)NC(=O)[C@H](CC(=O)O)NC(=O)[C@H](CC(=O)O)NC(=O)COCCOCCNC(=S)Nc2ccc3c(c2)C(=O)OC32c3ccc(O)cc3Oc3cc(O)ccc32)C(=O)N[C@@H](CCC(=O)O)C(=O)N[C@@H](CCC(N)=O)C(=O)N[C@@H](Cc2ccccc2)C(=O)N1)C(=O)N[C@@]1(C)CCC/C=C\CCC[C@@](C)(C(=O)N[C@H](C(N)=O)C(C)C)NC(=O)[C@H](CC(N)=O)NC(=O)[C@H](Cc2ccccc2)NC(=O)[C@H](CO)NC1=O [compound 28]

SMILES: CC#CCCCC[C@](C)(NC(=O)[C@H](Cc1ccccc1)NC(=O)[C@H](CCC(=O)NC(c1ccccc1)(c1ccccc1)c1ccccc1)NC(=O)[C@H](CCC(=O)OC(C)(C)C)NC(=O)[C@](C)(CCCC#CC)NC(=O)[C@H](CCC(=O)OC(C)(C)C)NC(=O)[C@H](CC(=O)OC(C)(C)C)NC(=O)[C@H](CC(=O)OC(C)(C)C)NC(=O)OCC1c2ccccc2-c2ccccc21)C(=O)N[C@@H](Cc1ccc(OC(C)(C)C)cc1)C(=O)N[C@@H](Cc1cn(C(c2ccccc2)(c2ccccc2)c2ccccc2)cn1)C(=O)N[C@@H](CC(C)C)C(=O)N[C@@H](CC(C)C)C(=O)N[C@@H](COC(C)(C)C)C(=O)N[C@@H](Cc1ccccc1)C(=O)N[C@@H](CC(=O)NC(c1ccccc1)(c1ccccc1)c1ccccc1)C(=O)N[C@@H](C)C(=O)N[C@H](C(N)=O)C(C)C
ring closure, overall yield ([1]; 22-membered ring): 12%

Rel. Kd (Kd [Peptide]/Kd [StRIP3]) (Rab8a6-176(GppNHp)): 1.00 | Kd (Rab8a6-176(GppNHp)): 20.7 ± 0.7 µM
SMILES: CC(C)C[C@H](NC(=O)[C@H](CC(C)C)NC(=O)[C@H](Cc1c[nH]cn1)NC(=O)[C@H](Cc1ccc(O)cc1)NC(=O)[C@]1(C)CCC/C=C\CCC[C@](C)(NC(=O)[C@H](CCC(=O)O)NC(=O)[C@H](CC(=O)O)NC(=O)[C@H](CC(=O)O)NC(=O)COCCOCCNC(=S)Nc2ccc3c(c2)C(=O)OC32c3ccc(O)cc3Oc3cc(O)ccc32)C(=O)N[C@@H](CCC(=O)O)C(=O)N[C@@H](CCC(N)=O)C(=O)N[C@@H](Cc2ccccc2)C(=O)N1)C(=O)N[C@@H](CO)C(=O)N[C@@H](Cc1ccccc1)C(=O)N[C@@H](CC(N)=O)C(=O)N[C@@H](C)C(=O)N[C@H](C(N)=O)C(C)C [StRIP3] ({FITC-AEEA}-DDE[S5]EQF[S5]YHLLSFNAV-NH2; staple (Z) 4-8; C-terminus assumed)

SMILES: CC#CCCC[C@](C)(NC(=O)[C@H](Cc1ccccc1)NC(=O)[C@H](CCC(=O)NC(c1ccccc1)(c1ccccc1)c1ccccc1)NC(=O)[C@H](CCC(=O)OC(C)(C)C)NC(=O)[C@](C)(CCCC#CC)NC(=O)[C@H](CCC(=O)OC(C)(C)C)NC(=O)[C@H](CC(=O)OC(C)(C)C)NC(=O)[C@H](CC(=O)OC(C)(C)C)NC(=O)OCC1c2ccccc2-c2ccccc21)C(=O)N[C@@H](Cc1ccc(OC(C)(C)C)cc1)C(=O)N[C@@H](Cc1cn(C(c2ccccc2)(c2ccccc2)c2ccccc2)cn1)C(=O)N[C@@H](CC(C)C)C(=O)N[C@@H](CC(C)C)C(=O)N[C@@H](COC(C)(C)C)C(=O)N[C@@H](Cc1ccccc1)C(=O)N[C@@H](CC(=O)NC(c1ccccc1)(c1ccccc1)c1ccccc1)C(=O)N[C@@H](C)C(=O)N[C@H](C(N)=O)C(C)C
ring closure, overall yield ([1]; 21-membered ring): 0%
